# In patent publication US4092426A, “Novel aminobenzoic acid derivatives, process for preparing the same and pharmaceutical composition containing the same” (Chugai Seiyaku Kabushiki Kaisha, priority 1975, dated 1978):
# Where a name gives a salt, the structure may show the parent alone.
# Key:
# [1] = system: autoimmune glomerulonephritis; experiment: Activity for Treating a Model of Autoimmune Disease (glomerulonephritis); type: in vivo, New Zealand Black/White F1 female mice
# Experimental: Pharmacological activity of the test compound, disodium salt of N-2'-carboxyphenyl-4-chloroanthranilic acid, was studied by the use of glomerulonephritis of New Zealand Black/White F1 female mice as a model of autoimmune disease. The test animals were divided into groups of 8 members each and orally administered with the test compound in a dose of 5 mg/kg or 50 mg/kg once a day from 8 week old. Development of the disease was evaluated by measuring the level of protein in urine with Combistix test paper (Ames Co., Inc.). It was confirmed that the evaluation by the test paper closely corresponds to the results of a quantitative analysis by a sulfosalicyclic acid method. Changes in average level of protein in urine each of the groups during a period of from 20 weeks old to 35 weeks old of the mice are shown in FIG. 2. […] Further, 3 mice among 8 mice of the control group were died from glomerulonephritis during the period of from 35 to 40 weeks from their birth, while there was no death in the groups to which the test compound had been administered.
# Sarcoma-180 = experiment: Antitumor Activity on Transplanted Tumor Cells (Sarcoma-180); type: in vivo, ddY strain male mice; conditions: 10 mg/kg oral once a day for 11 days; tumor weight 14 days after transplantation
# Text: For test animals, ddY strain male mice weighing 20 - 25 g were used dividing into groups of 9 or 10 members each. Each of the mice was subjected to transplantation of 10^6 tumor cells (Sarcoma-180) at a portion of the root of a hind paw by subcutaneous injection to induce solid tumor. The test compound, disodium salt of N-2'-carboxyphenyl-4-chloroanthranilic acid, was orally administered once a day for 11 days from the day that transplantation was made. Fourteen days after the transplantation, the grown tumor tissue was taken out from each mouse and its wet weight was measured to evaluate antitumor activity of the test compound. […] For the reasons stated above, it is assumed that the activity of the test compound is based on host-mediated antitumor activity.
# [2] = system: plaque forming cells (PFC) in the spleen; experiment: Activity for Recovering Immune Depletion by cortisone: plaque forming cells (PFC) in the spleen; type: in vivo, IV CS strain male mice; conditions: 10 mg/kg oral, cortisone-treated
# Experimental: As test animals, IV CS strain male mice (5 week old) were used by dividing them into groups of 5 members each. Each mouse was intraperitoneally administered with cortisone in a dose of 60 mg/kg once a day for 5 days. Three days after the first administration, the sensitization with an antigen, sheep red blood cell (SRBC), was made by injecting the antigen into the mouse through the tail vein. Each mouse was orally administered with the test compound, disodium salt of N-2'-carboxyphenyl-4-chloroanthranilic acid, a day after the sensitization. Five days after the sensitization, the number of plaque forming cells (PFC) in the spleen was measured in a usual manner.
# neutrocyte = experiment: Activity for Improving Bacteriocidal Ability in Neutrocyte (NBT test); type: in vivo, JW/CSK strain white male rabbits; conditions: rabbit, oral 100 mg/kg
# Experimental: As test animals, JW/CSK strain white male rabbits weighing 3.0 - 3.9 kg were used, dividing them into groups of 5 members each. Each rabbit was orally administered with the test compound, disodium salt of N-2'-carboxyphenyl-4-chloroanthranilic acid in a dose of 100 mg/kg, and 24 hours after the administration, neutrocyte in the blood of the peripheral vessels were reacted with nitrobluetetrazorium (NBT) and then the proportion of cells positive to formazan was measured by a microscope. As the control, the value obtained from the same animal just 3 days before the administration of the test compound was referred to.
# [3] = system: Salmonella enteritidis TO-1; experiment: Activity for Protecting from Infection by Salmonellae, with streptomycine; type: in vivo; conditions: mouse; oral 2 mg/head; with streptomycine 0.5 mg/head s.c.
# Experimental: As test animals, ddY strain male mice (5 week old) which were divided into groups of 7 members each were used. Each mouse was intraperitoneally inoculated with 10^5 Salmonella enteritidis TO-1, and 3 hours after the inoculation, was subcutaneously administered one shot of streptomycine in a dose of 0.5 mg/head.
smiles,measurement,setting,value
O=C(O)c1ccccc1Nc1cc(Cl)ccc1C(=O)O [disodium salt of N-2'-carboxyphenyl-4-chloroanthranilic acid],suppression of autoimmune glomerulonephritis,[1]; 5 or 50 mg/kg oral once a day,significantly shows pharmacological activities to suppress autoimmune glomerulonephritis
same,level of protein in urine,"[1]; 5 or 50 mg/kg oral once a day, 20 to 35 weeks old, control rose after around 27 weeks",maintained a relatively steady level
same,death from glomerulonephritis,"[1]; 5 or 50 mg/kg oral, 35 to 40 weeks from birth, control 3 among 8 died",no death
same,suppression of tumor growth (Sarcoma-180),Sarcoma-180,significant activity for suppression of tumor growth
same,number of PFC,[2],significantly increased
same,proportion of neutrocyte cells positive to formazan,neutrocyte,significantly increased
same,NBT Value,"neutrocyte; 24 h after, before treatment 11.4 ± 1.8, P<0.05, Average ± Standard Deviation",33.3 ± 7.8%
same,bacteriocidal activity of the antibiotic with the test compound,[3],improved bacteriocidal activity
